Structures are written as SMILES. Bounds are passed on as bounds.

The values below come from article PMC12822377, “Investigating the role of cytochrome bd oxidases in the antibacterial activity of madecassic acid and derivatives thereof” (RSC Medicinal Chemistry, 2026).

For assay [1], the target named is T1, cytochrome bd-I (Escherichia coli, UniProt P0ABJ9).
T1 construct: oxygen consumption activity of E. coli EC958 cytochrome bd-I-only membranes; endogenous in cells; host or cells: E. coli EC958 bd-I only strain (genotype ΔcyoA appCB::Cm), isolated membranes
T1 sequence (P0ABK2 whole entry): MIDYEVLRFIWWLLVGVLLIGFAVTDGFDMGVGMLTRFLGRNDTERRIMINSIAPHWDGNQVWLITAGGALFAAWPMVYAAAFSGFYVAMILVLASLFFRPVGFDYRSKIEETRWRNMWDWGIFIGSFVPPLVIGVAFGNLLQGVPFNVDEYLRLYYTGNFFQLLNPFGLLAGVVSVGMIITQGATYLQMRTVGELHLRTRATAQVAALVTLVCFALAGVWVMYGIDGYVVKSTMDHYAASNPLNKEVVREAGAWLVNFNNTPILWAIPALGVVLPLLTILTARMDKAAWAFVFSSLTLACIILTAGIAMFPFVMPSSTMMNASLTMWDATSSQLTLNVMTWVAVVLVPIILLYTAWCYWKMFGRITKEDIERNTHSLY
T1 sequence (A5A618 whole entry, further chain): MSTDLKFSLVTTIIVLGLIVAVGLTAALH
T1 sequence (P0ABJ9 whole entry): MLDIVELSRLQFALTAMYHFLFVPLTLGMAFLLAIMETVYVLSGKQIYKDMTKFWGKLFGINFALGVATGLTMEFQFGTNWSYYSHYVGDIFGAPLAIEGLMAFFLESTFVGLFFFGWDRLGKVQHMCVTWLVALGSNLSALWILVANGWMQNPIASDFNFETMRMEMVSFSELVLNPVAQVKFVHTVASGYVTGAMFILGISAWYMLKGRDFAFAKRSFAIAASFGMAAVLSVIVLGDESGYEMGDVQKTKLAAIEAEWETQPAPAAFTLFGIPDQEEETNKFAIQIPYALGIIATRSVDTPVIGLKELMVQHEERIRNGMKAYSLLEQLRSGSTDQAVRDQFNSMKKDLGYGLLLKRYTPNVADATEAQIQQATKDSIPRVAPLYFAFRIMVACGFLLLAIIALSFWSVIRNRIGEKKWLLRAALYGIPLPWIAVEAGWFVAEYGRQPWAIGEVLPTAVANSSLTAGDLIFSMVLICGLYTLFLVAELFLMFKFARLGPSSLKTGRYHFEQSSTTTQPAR
T1 sequence (P56100 whole entry, further chain): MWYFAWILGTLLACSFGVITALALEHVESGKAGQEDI
Briefly: Oxygen consumption assay with isolated E. coli EC958 cytochrome bd-I only membranes. It is filed as biochemical. The protocol:
Membrane preparation and oxygen consumption were performed as described previously.[13] Briefly, cells were grown to exponential phase then harvested via centrifugation for 20 min at 4000 rpm and 4 °C. The cell pellet was resuspended in ice-cold sonication buffer (20 mM Tris/HCl at pH 7.4, 2 mM MgCl2, and 1 mM EGTA). The resuspended cells were sonicated (6 × 30s on ice at […]) before centrifugation at 44 000 rpm for 1 h and 4 °C to isolate membranes. The membrane pellet was resuspended in 20 mM Tris/HCl (pH 7.4) at a final concentration of 100 mg mL^−1 and stored at −20 °C. For oxygen measurements a Rank Brothers oxygen electrode with a 4 mL closed chamber was used at 37 °C, which contained 50 mM HEPES pH 7.4, 0.5 mg mL^−1 membranes (based on wet membranes) and DMSO-solubilised drug (added from 40× final concentration). A final concentration of 8 mM succinate (pH 7.4) was added (from 160 mM stock) to initiate the reaction with a single run lasting 15–20 min.

The test system of assay [2] is E. coli EC958 cytochrome bd-I only cells. The assay is described as follows: microbe, parasite or virus in culture. Type of assay: cell-based, Escherichia coli. As for the experimental part:
(§1) EC958 is a multidrug-resistant E. coli O25: H4-ST131 isolate.[16,17] Generation of the EC958 bd-I only strain (genotype ΔcyoA appCB::Cm) is described elsewhere.[13]
(§2) Viability assays were performed essentially as described previously.[13] Briefly, E. coli was grown overnight in 10 mL LB medium and was used to inoculate M9 medium. 20 μL of each drug was added to the wells of row A of a 96 well plate followed by 180 μL of cells (OD600 of 0.1). Cells were exposed to drug for 3 hours at 37 °C. Following drug exposure, serial dilutions were performed in 1 × phosphate buffered saline (pH 7.4) before being spotted onto LB agar plates overnight to determine changes in cell survival. Six repeats were performed for each concentration of drug which included two biological repeats and three technical repeats of each.

Assay [3] has the same test system. The assay is described as follows: Growth assay against E. coli cytochrome bd-I only cells. It is filed as cell-based, Escherichia coli. The conditions noted are these: for IC50: Escherichia coli, read-out: IC50, growth inhibition, bd-I only E. coli cells, M9 minimal medium. The protocol:
as §1
(§3) Starter cultures were grown in 10 mL LB (E. coli) in sterile 50 mL conical flasks at 180 rpm and 37 °C until stationary phase was reached and were used to inoculate 50 mL of fresh growth medium in 250 mL conical flasks. M9 minimal medium was used for E. coli (16 g L^−1 Na2HPO4·2H2O, 3 g L^−1 KH2PO4, 0.5 g L^−1 NaCl, 1 g L^−1 NH4Cl, 0.24 g L^−1 MgSO4, 0.01 g L^−1 CaCl2, 0.1% casamino acids and 2% glycerol). Drug stocks were prepared in DMSO so that their final concentrations were 40× higher than the working concentrations. Greiner F-bottom sterile 96-well plates were prepared by adding 100 μL of a 2× concentrated growth medium, 61.7 μL sterile milliQ H2O, 5 μL of the drug and 33.3 μL of cell culture (final OD600 of ∼0.1). Cells were grown in a FLUOstar Omega plate reader at double orbital pattern setting.

The next assay concerns the target T2, succinate dehydrogenase (Escherichia coli, UniProt P07014+P0AC41+P0AC44+P69054).
T2 construct: endogenous in cells; host or cells: E. coli membranes; the main text says EcoM4 pSU2718G-cydABX-his6, the supplement says EC958
Briefly: Succinate dehydrogenase assay in isolated E. coli membranes. Type of assay: biochemical. As to conditions: 1 mM. An excerpt:
Investigating the role of cytochrome bd oxidases in the antibacterial activity of madecassic acid and derivatives thereof
Samantha A. Henry,a Geraud N. Sansom,a Thao Thi Phuong Tran,b Ryan A.
Boughton,a Guy Joiner,a Calum M. Webster,a H. Ireshika C. de Silva,c Michelle D.
Garrett,a Christopher J. Serpell,d Gary K. Robinson,a Mark Shepherd a a School of Natural Sciences, University of Kent, Canterbury, United Kingdom, CT2 7NH, UK b Institute of Chemistry, Vietnam Academy of Science and Technology, 18 Hoang Quoc Viet Road, Cau […]
c Department of Chemistry, University of Colombo, Colombo 03, Sri Lanka d School of Pharmacy, University College London, 29-39 Brunswick Square, London, WC1N 1AX, UK […]
Spectrakinetics were recorded on a Cary 60 spectrophotometer for 15 min and rates were calculated using the extinction coefficient A600 = 20.7 mM -1cm-1 (5) . […]
Isolated E. coli EC958 membranes were assayed for succinate dehydrogenase activity in the presence and absence of 1 mM madecassic acid (MA), and negative controls were recorded in the absence of membranes. […]

In assay [4] the test system is wild type E. coli EC958 cells. Briefly: Survival assay against wild type E. coli EC958 cells. It is filed as cell-based, Escherichia coli. The conditions noted are these: wild type EC958 strain. The protocol:
as §2
(§4) Figure S1. Impact of madecassic acid upon E. coli growth and survival. (A) Growth assays of MA against wild type E. coli EC958 cells. Error bars represent standard deviations for at least 4 technical repeats, including two biological repeats. (B) Wild type E. coli EC958 cells were exposed to various concentrations of madecassic acid and bacterial survival was enumerated using serial dilution and viability plating. Error bars represent standard deviations for at least four technical repeats, including two […]
(§5) (1 picture or pasted object on this page, not shown here)

Assay [5] concerns the target T1, cytochrome bd-I. The assay is described as follows: Oxygen electrode cytochrome bd-I assay with duroquinol as the electron source (EcoM4 pSU2718G-cydABX-his6 membranes). It is filed as biochemical. As to conditions: 1 mM, 400 µM duroquinol as electron donor. As for the experimental part: Oxygen electrode cytochrome bd-I assays with duroquinol as the electron source Membranes from the E. coli EcoM4 pSU2718G-cydABX-his 6 strain were prepared as described previously(6). To specifically monitor cytochrome bd-I activity, duroquinol was used as a directly electron source. Duroquinol was prepared from duroquinone as previously described(7) and quantified using the extinction coefficient ΔA275(ox – red) = 16 mM-1cm-1 (8). Cytochrome bd-I activity was then monitored via oxygen consumption in a Rank Brothers oxygen electrode with a 2 mL closed chamber at 37 °C, which contained 50 mM HEPES pH 7.4, 0.5 mg/mL membranes (based on wet membranes) and DMSO-solubilised drug (added from 40x final concentration) or ‘DMSO only’ control. A final concentration of 400 µM duroquinol (in 50 mM KPi, 2mM EDTA pH 7.5) was added to initiate the reaction.
7. Rich P. Electron transfer reactions between quinols and quinones in aqueous and aprotic
8. Degli Esposti M, Lenaz G, Izzo G, Papa S. Kinetics and sidedness of ubiquinol-cytochrome c
Figure S3. […] Cytochrome bd-I activity was measured via monitoring oxygen consumption in an oxygen electrode in the presence and absence of 1 mM madecassic acid, and negative controls were recorded in the absence of membranes. […]

In assay [6] the test system is wild type E. coli EC958 cells. Briefly: Growth assay against wild type E. coli EC958 cells. Type of assay: cell-based, Escherichia coli. The conditions noted are these: wild type EC958 strain, aerobic conditions. The protocol:
as §3, §4, §5

T2 sequence (P0AC41 whole entry): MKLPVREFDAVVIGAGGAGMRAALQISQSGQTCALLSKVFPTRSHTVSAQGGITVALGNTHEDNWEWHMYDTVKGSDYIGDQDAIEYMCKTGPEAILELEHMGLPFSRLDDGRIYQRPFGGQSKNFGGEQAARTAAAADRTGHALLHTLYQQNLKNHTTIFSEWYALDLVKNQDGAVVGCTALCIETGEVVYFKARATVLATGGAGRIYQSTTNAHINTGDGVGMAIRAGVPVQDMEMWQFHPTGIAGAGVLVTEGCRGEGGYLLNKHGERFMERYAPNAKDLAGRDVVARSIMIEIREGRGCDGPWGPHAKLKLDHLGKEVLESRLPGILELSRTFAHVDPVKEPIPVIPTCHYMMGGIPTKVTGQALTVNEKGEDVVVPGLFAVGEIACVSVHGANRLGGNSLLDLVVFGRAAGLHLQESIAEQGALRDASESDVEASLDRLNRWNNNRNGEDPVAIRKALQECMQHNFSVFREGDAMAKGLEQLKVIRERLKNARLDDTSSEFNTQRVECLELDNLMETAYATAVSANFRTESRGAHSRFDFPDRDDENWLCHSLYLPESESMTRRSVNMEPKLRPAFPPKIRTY
T2 sequence (P69054 whole entry): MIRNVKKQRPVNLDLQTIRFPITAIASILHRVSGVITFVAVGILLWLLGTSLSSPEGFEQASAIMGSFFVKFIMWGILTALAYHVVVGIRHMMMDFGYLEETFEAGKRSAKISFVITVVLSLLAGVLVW
T2 sequence (P07014 whole entry): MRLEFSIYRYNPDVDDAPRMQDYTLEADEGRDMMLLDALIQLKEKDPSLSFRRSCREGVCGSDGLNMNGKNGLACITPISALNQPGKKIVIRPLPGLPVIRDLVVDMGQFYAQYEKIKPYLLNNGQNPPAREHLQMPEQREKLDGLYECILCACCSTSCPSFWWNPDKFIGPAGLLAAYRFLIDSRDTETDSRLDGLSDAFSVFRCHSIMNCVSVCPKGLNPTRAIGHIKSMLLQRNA
T2 sequence (P0AC44 whole entry): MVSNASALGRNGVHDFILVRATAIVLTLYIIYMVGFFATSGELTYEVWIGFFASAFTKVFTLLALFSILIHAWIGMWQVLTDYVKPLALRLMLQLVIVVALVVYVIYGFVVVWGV

`CC1CCC2(C(=O)NCCCCCCCCCCN)CCC3(C)C(=CCC4C5(C)CC(O)C(O)C(C)(CO)C5C(O)CC43C)C2C1C` (stereo not shown) [MA-4]: the IC50 (usually the concentration that inhibits the measured activity by half) on cytochrome bd-I [1] was 79 ± 44 µM; in assay [3], above 250 µM. Further, the median lethal concentration (LC50) – broadly, the concentration that kills 50% of the test population – in assay [2] (Escherichia coli, 3 h, read-out: LC50 (killing)) was found to be 304 ± 73 µM.
In the case of `C[C@H]1[C@H](C)CC[C@]2(C(=O)O)CC[C@]3(C)C(=CC[C@@H]4[C@@]5(C)C[C@@H](O)[C@H](O)[C@@](C)(CO)[C@@H]5[C@H](O)C[C@]43C)[C@H]12` [MA, Madecassic acid], the IC50 at cytochrome bd-I [1] is 34 ± 11 µM; in assay [3] it was 9.4 ± 1.5 µM; in assay [6] (Escherichia coli, read-out: IC50, growth inhibition) it was around 10 µM. Moreover, on succinate dehydrogenase, the “inhibition of SDH activity” value is “did not inhibit SDH”. Moreover, the “killing of cells (viability assay)” value in assay [2] (bd-I only E. coli cells, 3 hours exposure at 37 °C) is “did not kill”. Further, in assay [4], the “susceptibility to killing (survival assay)” value is given as “not susceptible to MA-mediated killing at concentrations below 1 mM”. The “Max inhibition of growth” value in assay [3] (bd-I only E. coli cells) is 63%. Also, at cytochrome bd-I [5], the “effect on cytochrome bd-I activity (oxygen consumption)” value is “completely abolishes bd-I activity”. The “maximal inhibition of growth” value in assay [6] is 48%.
On to `CC(=O)OCC1(C)C(OC(C)=O)C(OC(C)=O)CC2(C)C1C(O)CC1(C)C2CC=C2C3C(C)C(C)CCC3(C(=O)O)CCC21C` (stereo not shown) [MA-2], for which the concentration for half-maximal inhibition (IC50) against cytochrome bd-I [1] is 15 ± 5 µM; in assay [3], 116 ± 22 µM.
On the same counts, the results for `CC(=O)OCC1(C)C(OC(C)=O)C(OC(C)=O)CC2(C)C1C(O)CC1(C)C2CC=C2C3C(C)C(C)CCC3(C(=O)NCCCCCCCCCCN)CCC21C` (stereo not shown) [MA-3] are 10 ± 1 µM and 16 ± 11 µM.
